The values below come from ChEMBL document CHEMBL6134864, “Discovery of FLT3-ITD Inhibitor Clifutinib: A Novel Biphenylacetylene Urea Derivative in Clinical Trials for the Treatment of Relapsed/Refractory FLT3-ITD+ Acute Myeloid Leukemia” (J Med Chem, 2025).

Where only a bound is given, the exact number is not on record here.

One series deals with OVCAR-3. As to the kind of experiment: cells. The following applies: Homo sapiens, OVCAR-3, 72 h.
The nature of series [1]: Cmax in NOD/SCID mouse tumor xenografted with human MV4-11 cells at 4.5 mg/kg, po measured up to 24 hrs by LC-MS/MS analysis. In kind it is ADME, organism-based, Neoplasm. (In general: A xenograft is tissue or cells of one species grown in another, often human tumour cells in immunodeficient mice.)
Series [2] addresses Platelet-derived growth factor receptor beta (Homo sapiens, UniProt P09619). Put plainly: Inhibition of human PDGFR beta by biochemical kinase binding assay.
A short description of series [3]: Half life in NOD/SCID mouse plasma xenografted with human MV4-11 cells at 4.5 mg/kg, po measured up to 24 hrs by LC-MS/MS analysis. In kind it is ADME, organism-based.
Another series addresses Cytochrome P450 2D6 (Homo sapiens, UniProt P10635). As to the kind of experiment: Inhibition of CYP2D6 in human liver microsomes by UPLC-MS/MS analysis. In kind it is ADME, Microsome. In general terms: Microsomes from liver hold many membrane-bound enzymes, among them those of drug oxidation.
The subject of a further series is MOLM-13. Put plainly: Antitumor activity against human MOLM-13 cells xenografted in NOD/SCID mouse model assessed as tumor growth inhibition at […], po by caliper analysis relative to control. In kind it is functional. The conditions noted are these: dose 1.5 mg/kg/day, read-out: TGI.
Series [4] is described as follows: Clearance in mouse plasma at 2 mg/kg, iv measured up to 24 hrs by LC-MS/MS analysis. In kind it is ADME, organism-based.
Series [5] in a line: Half life in dog plasma at 1 mg/kg, iv measured up to 24 hrs by LC-MS/MS analysis. In kind it is ADME, organism-based, Canis lupus familiaris.

The term IC50 denotes the concentration at which inhibition is half-maximal. One may read the Cmax as the peak of the concentration-time curve. The term half-life denotes the time needed for the level to fall by half in the phase considered. Read a high half-life as slow loss. As usually defined, the clearance is the volume of plasma or blood freed of the substance per unit of time.

Sequence of Cytochrome P450 2D6 (P10635 whole entry): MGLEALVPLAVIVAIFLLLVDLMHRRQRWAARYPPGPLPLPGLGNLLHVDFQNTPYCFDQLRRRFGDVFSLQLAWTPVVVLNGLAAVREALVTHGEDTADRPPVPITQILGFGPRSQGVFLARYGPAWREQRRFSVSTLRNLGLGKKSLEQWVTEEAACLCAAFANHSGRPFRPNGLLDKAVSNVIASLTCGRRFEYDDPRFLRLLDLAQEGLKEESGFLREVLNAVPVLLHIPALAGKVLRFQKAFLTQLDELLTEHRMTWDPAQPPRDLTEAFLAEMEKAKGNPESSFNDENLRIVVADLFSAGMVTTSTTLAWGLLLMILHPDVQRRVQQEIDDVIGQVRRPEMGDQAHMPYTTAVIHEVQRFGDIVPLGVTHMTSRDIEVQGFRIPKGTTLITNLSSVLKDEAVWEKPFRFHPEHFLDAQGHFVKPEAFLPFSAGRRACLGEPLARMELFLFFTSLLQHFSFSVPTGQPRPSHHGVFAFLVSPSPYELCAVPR
Sequence of Platelet-derived growth factor receptor beta (P09619 whole entry): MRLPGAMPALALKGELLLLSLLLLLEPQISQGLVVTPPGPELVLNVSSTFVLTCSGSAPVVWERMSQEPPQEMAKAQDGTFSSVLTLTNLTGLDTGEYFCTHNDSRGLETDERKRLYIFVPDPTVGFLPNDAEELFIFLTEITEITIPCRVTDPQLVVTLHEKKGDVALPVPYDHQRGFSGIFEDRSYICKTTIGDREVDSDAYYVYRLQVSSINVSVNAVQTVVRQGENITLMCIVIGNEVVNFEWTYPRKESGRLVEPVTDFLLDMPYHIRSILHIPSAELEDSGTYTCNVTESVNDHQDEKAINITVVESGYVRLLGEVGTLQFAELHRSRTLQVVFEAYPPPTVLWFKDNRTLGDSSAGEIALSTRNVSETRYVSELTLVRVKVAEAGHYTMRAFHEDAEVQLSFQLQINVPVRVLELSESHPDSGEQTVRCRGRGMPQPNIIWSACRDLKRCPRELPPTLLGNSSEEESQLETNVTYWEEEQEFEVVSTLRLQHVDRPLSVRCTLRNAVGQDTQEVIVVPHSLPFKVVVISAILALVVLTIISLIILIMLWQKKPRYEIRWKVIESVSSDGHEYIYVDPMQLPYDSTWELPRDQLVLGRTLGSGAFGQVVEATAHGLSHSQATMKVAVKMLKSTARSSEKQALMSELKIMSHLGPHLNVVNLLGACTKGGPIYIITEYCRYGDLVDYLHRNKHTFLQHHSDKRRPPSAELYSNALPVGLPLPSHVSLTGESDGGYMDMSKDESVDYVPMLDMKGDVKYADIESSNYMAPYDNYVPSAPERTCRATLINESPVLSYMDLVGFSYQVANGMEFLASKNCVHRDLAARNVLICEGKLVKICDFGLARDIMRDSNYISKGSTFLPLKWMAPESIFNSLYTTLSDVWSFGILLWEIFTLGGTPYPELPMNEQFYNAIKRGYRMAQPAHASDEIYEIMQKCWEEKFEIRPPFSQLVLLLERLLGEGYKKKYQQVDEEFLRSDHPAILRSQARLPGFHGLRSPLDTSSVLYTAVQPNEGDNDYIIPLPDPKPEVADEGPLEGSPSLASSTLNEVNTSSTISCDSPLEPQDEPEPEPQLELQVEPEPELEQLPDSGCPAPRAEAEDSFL
Description for OVCAR-3: Antiproliferative activity against human OVCAR-3 cells assessed as inhibition of cell growth incubated for 72 hrs by celltiter-glo luminescent cell viability assay

Turning to `CC(C)(C)c1cc(NC(=O)Nc2ccc(C#Cc3ccc(OCCCN4CCOCC4)cc3)cc2)no1`, the IC50 is above 10 µM in the series with OVCAR-3, 1.63 µM in series [2] and above 33.3 µM against Cytochrome P450 2D6. For the same molecule, the concentration in series [1] peaked (Cmax) at 307 ng/mL. For the same molecule, the half-life in series [3] is 3.82 h; in series [5], 6.28 h. For the same molecule, the inhibition in vivo at […] in the series on MOLM-13 turned out to be 52%. Further, the clearance in series [4] is 18.9 mL/min/kg.
